Laboratory results reported in US4149007A, “C14 Phenyl-substituted derivatives of prostaglandin analogues” (Miles Laboratories, Inc., priority 1977, dated 1979).

Legend:
adrenal glands = conditions: hypophysectomized rats; cited from earlier work
[1] = variety of mammals; cited from earlier work
tracheal smooth muscle = conditions: in vitro, most mammalian respiratory tracts; cited from earlier work
growth hormone = conditions: rats; cited from earlier work
human platelet [2] = conditions: compared with compounds of Formula IV; cited from earlier work
[3] = test system: motor pathways in the central nervous system; conditions: cited from earlier work
blood platelets = conditions: in vitro; cited from earlier work
[4] = test system: smooth muscle of the vas deferens; conditions: cited from earlier work
rat colon = assay: Cascade assay: rat colon; assay type: cell-based; conditions: in vitro, smooth muscle stimulant ED50 scored
Protocol: (§1) (A) effects on the rat stomach, rat colon, chick rectum, and rabbit aorta in vitro (cascade assay);
(§2) The smooth muscle stimulant effects of test compounds were determined simultaneously in four different tissues that are known to be reactive to naturally occurring prostaglandins. Segments of rat stomach fundus, rat colon, chick rectum and rabbit aortic strip were obtained as described by: Vane, J. R., Brit. J. Pharmacol., 12: 344 (1957); Regoli, D. and Vane, J. R., Brit. J. Pharmacol., 23: 351 (1964); Mann, M. and West, G. B., Brit. J. Pharmacol., 5: 173 (1950); and Furchgott, R. F. and Bhadrakom, R., J. Pharmacol. Exper. Ther., 108: 129 (1953). One end of each preparation was tied to the bottom of a 10 ml tissue chamber and the other to a force displacement transducer (Grass FT-03) for continuous tension recording. The stomach, colon, and rectum segments were stretched to an initial tension of 1 g, while the aortic strip was subjected to 4 g. All preparations were left undisturbed for 1 hour prior to testing. […]
(§3) Test compounds were diluted from stock solutions so as to administer quantities ranging from 0.0001 to 100,000 ng in a volume of 0.5 ml. […] Maximal increases in tension after each dose were measured and the results were used to plot dose-response curves. […]
(§4) Activity in each tissue was scored according to the following scale: […]

chick rectum = assay: Cascade assay: chick rectum; assay type: cell-based; conditions: in vitro, smooth muscle stimulant ED50 scored
Protocol: as §1, §2, §3, §4

human platelet [5] = assay: Inhibition of human platelet aggregation in vitro; assay type: cell-based; conditions: human platelet rich plasma, collagen-induced
Protocol: (E) effect on human platelet aggregation in vitro; and
The ability of test compounds to inhibit platelet aggregation was determined by a modification of the turbidometric technique of Born, G. V. R. (Nature, 194: 927 [1962]). Blood was collected from human volunteers, who had not ingested aspirin or aspirin-containing products within the preceding two weeks, in heparinized containers and was allowed to settle for one (1) hour. The platelet rich plasma (prp) supernates were collected and pooled. Siliconized glassware was used throughout.
In a representative assay, 1.9 ml of PRP and 0.2 ml of test compound at the appropriate concentration ([…]), or 0.2 ml of distilled water (control procedure) were placed in sample cuvettes. The cuvettes were placed in a 37° C. incubation block for 15 minutes, and then in a spectrophotometer linked to a strip chart recorder. After 30-60 seconds, 0.2 ml of a solution, prepared by diluting a calf-skin collagen solution 1:9 with Tyrodes' Solution, was added to each cuvette. Platelet aggregation was evidenced by a decrease in optical density.
An ED50 value was then determined graphically.

rat uterus = assay: Effects on the rat uterus in vitro; assay type: cell-based; conditions: dose producing response 50% that of carbachol
Protocol: (B) effect on the rat uterus in vitro;
The uterine stimulant effect of test compounds was determined in segments of uterus obtained from rats (140-160 g) pretreated subcutaneously with 1 mg/kg of diethylstilbesterol 18 hours before the experiment. The tissues were placed in 10 ml chambers filled with de-Jalon solution at 29° C., were aerated and bubbled with 95% O2 and 5% CO2, and were prepared for isometric recording with force displacement transducers. Preparations were stretched to an initial tension of 1 g and were left undisturbed for 30 minutes. Carbachol (1 mcg/ml) was then added to the bath and a response was recorded. After a ten minute interval the carbachol procedure was repeated. Responses to increasing concentrations of a test compound (0.001 to 10 mcg/ml with one log intervals) were then recorded every 10 minutes. Preparations were washed four times after each response. All doses of compounds were administered in a 0.1 ml volume. Because it has been observed that the magnitude of the second response to carbachol (approximately 10% greater than the first) is close to the maximal response of the tissue, such value was taken as a measure of the sensitivity of a particular segment. Responses to each concentration of the test compound were expressed in terms of percentage of the second response to carbachol and the ED50 (dose producing a response 50% that of carbachol) was calculated graphically.
Activity was scored according to the following scale: […]

rabbit aortic strip = assay: Cascade assay: rabbit aortic strip; assay type: cell-based; conditions: in vitro, smooth muscle stimulant ED50 scored
Protocol: as §1, §2, §3, §4

hypertensive rat = assay: Effects on blood pressure in the hypertensive rat; assay type: in vivo; parameters: key: 0: Not significant at any time interval; 1: Significant at one time interval; 2: Significant at two time intervals; conditions: 1 mg/kg intraperitoneal; 2, 4, 6 and 9 hours
Protocol: (I) effect on systolic blood pressure in the hypertensive rat
The acute anithypertensive activity of test compounds was determined in rats made hypertensive by the procedure of Grollman (Proc. Soc. Exper Biol. Med., 57: 102 [1944]). Female rats weighing between 60 and 100 g were anesthetized with ether, the right kidney approached through a flank retroperitoneal incision, decapsulated and tied with a figure-of-eight-ligature. The animals were left to recover and two weeks later were again anesthetized and the contralateral kidney removed. […]
Blood pressure was measured in the tail with an inflatable occluding cuff placed at the base of the extremity and a pulse detector located distally. The cuff was inflated to approximately 300 mmHg and was slowly deflated until pulsations appeared, indicating the level of systolic pressure; diastolic pressure was not recorded by this procedure. […] In all cases, three pressure readings were obtained in succession and mean values were calculated thereof.
Experiments were carried out in groups of five hypertensive rats in which systolic pressure was determined immediately before and 2, 4, 6 and 9 hours after intraperiotoneal administration of the test compound at a dose of 1 mg/kg. Drugs were diluted from stock solutions with phosphate buffer (Lee et al., Prostaglandins, 3: 29 [1973]), so as to inject this quantity in a volume of 1 ml/kg. […]

rat = assay: Effects on gastric secretion in the rat; assay type: in vivo; conditions: pylorus ligated, 1.5 mg/kg s.c. twice (total 3.0 mg/kg), 4 hours
Protocol: (F) effect on gastric secretion in the rat;
A procedure based on that described by Lipman, W. (J. Pharm. Pharmacol., 21: 335 [1968]) was used to assess the influence of test compounds on gastric secretion. Rats of one sex weighing 150 to 200 g were randomly divided into groups of six animals each and fasted for 48 hours previous to the experiments, water being available ad libitum. The animals were anesthetized with ether, the abdomen opened through a midline incision, and the pylorus ligated. Test compounds were diluted from stock solution so as to administer a dose of 1.5 mg/kg in a volume equivalent to 1 ml/kg. Subcutaneous injections were applied immediately after surgery and again 2 hours later, so that a total dose of 3.0 mg/kg was administered. Dilutions were made with phosphate buffer (pH 7.38) as recommended by Lee et al. (Prostaglandins, 3: 29 [1973]) in order to insure adequate stability of drugs at the subcutaneous depot. […]
Four hours after pyllric ligation the animals were killed with ether, the cardias ligated, and the stomachs removed. The volume of gastric secretion was measured and the contents centrifuged at 5000 rpm for 10 minutes. […]
Volume and total acid values of the treated group were compared with those of the controls […]. Antisecretory activity was scored according to the following scale: […]

rat stomach fundus = assay: Cascade assay: rat stomach fundus; assay type: cell-based; conditions: in vitro, smooth muscle stimulant ED50 scored
Protocol: as §1, §2, §3, §4

man = conditions: cited from earlier work

## CCCCC[C@H](O)/C=C/[C@@H]1[C@@H](CCCCCCC(=O)O)[C@@H](O)C[C@H]1O [PGF1α]
Adrenal glands
  steroidogenesis in the adrenal glands: stimulate stereoidogenesis in the adrenal glands
[1]
  luteolytic effect: act as luteolytic factors

## CCCCC[C@H](O)/C=C/[C@H]1[C@H](O)CC(=O)[C@@H]1CCCCCCC(=O)O [PGE1]
Tracheal smooth muscle
  effect on tracheal smooth muscle: relax
Growth hormone
  release of the growth hormone: increase the release of the growth hormone
Adrenal glands
  steroidogenesis in the adrenal glands: stimulate stereoidogenesis in the adrenal glands
Human platelet [2]
  inhibition of human platelet aggregation, comparison with natural prostaglandin: displays similar activity
[3]
  transmission along motor pathways in the central nervous system: retards
Blood platelets
  aggregation of blood platelets: inhibits aggregation of blood platelets in vitro
[4]
  effect on smooth muscle of the vas deferens: contracts the smooth muscle of the vas deferens

## COC(=O)CCCc1ccccc1CC1C(=O)CCC1/C=C(\c1ccccc1)[C@H](C)O (stereo partly drawn) [Example 4, Methyl 5,6,17,18,19,20-hexanor-4,7,-inter-o-phenylene-14-phenyl-15S-hydroxy-9-oxo-ent-prost-13E-en-1-oate]
Rat colon
  Cascade, Colon: activity value (ED50): 0 (>10000)
Chick rectum
  Cascade, Rectum: activity value (ED50): 0 (>10000)
Human platelet [5]
  Platelet Aggregation: activity value (ED50): 1 (>0.1 and ≤1.0)
Rat uterus
  Rat Uterus: activity value (ED50): 0 (>10)
Rabbit aortic strip
  Cascade, Aorta: activity value (ED50): 0 (>10000)
Hypertensive rat
  Blood Pressure Hypertensive Rat: activity value: 0
rat
  Gastric Secretion: activity value (% decrease in acidity): 0 (<26)
Rat stomach fundus
  Cascade, Stomache: activity value (ED50): 0 (>10000)

## CCCCC[C@H](O)/C=C/[C@H]1C=CC(=O)[C@@H]1CCCCCCC(=O)O [PGA1]
Growth hormone
  synthesis of the growth hormone: increases its synthesis
man
  gastric secretion, man: exhibits similar activity in man
